Results as given in patent publication US20190328845A1, “IN VIVO SYNTHESIS OF ELASTIC FIBER” (ALLERGAN PHARMACEUTICALS INTERNATIONAL LIMITED, priority 2011, published 2019).

Tests used:
Dermal human fibroblasts = test: Elastic fiber formation in the presence of lysyl oxidase inhibitor; assay type: cell-based; details: BAPN added at various time points relative to tropoelastin addition; 72 hours culture
Protocol: The effect of the lysyl oxidase inhibitor BAPN on elastic fiber formation in this system was studied.
Dermal human fibroblasts were grown for 12 days prior to tropoelastin addition as described. Cells were cultured for a further 72 hours after tropoelastin addition. BAPN was added at various time points relative to tropoelastin addition. Samples were stained for elastin and nuclei as described above.

human skin fibroblasts = test: In vitro assay system for elastic fiber synthesis, human skin fibroblasts; assay type: cell-based; details: 7 days
Protocol: Cells were cultured in Dulbecco's Modified Eagle Medium High Glucose (DMEM; Invitrogen) containing 10% fetal bovine serum (FBS; Invitrogen) and 1% (v/v) penicillin/streptomycin (Invitrogen). Media were changed every 2-3 days. Cells were incubated at 37° C. and 5% CO2. To assess the capacity of cells to form elastin fibers 1×10^5 cells were seeded onto glass coverslips in 12 well culture plates. Ten to 17 days post-seeding full-length tropoelastin (Elastagen), or an alternative elastin-derived protein, in PBS was filter-sterilized and added to the cell cultures. Alternative elastin-derived proteins included human skin elastin peptides (Elastin Products Company; HSP72), a C-terminal tropoelastin deletion construct ARKRK (Weiss lab) and a C-terminal tropoelastin substitution construct containing RGDS (Weiss lab). Fiber formation was also assessed in the presence of 50 μM blebbistatin (Sigma). For experiments assessing the effect of repeated tropoelastin additions the protein was added 10, 17 and 24 days post-seeding. Cell matrix thickness was determined by averaging the number of 0.41 μm z slices required to image from the uppermost nuclei to the bottom of the sample in ten randomly chosen fields of view.
At set time points after tropoelastin addition, cells were fixed with either 3% (w/v) formaldehyde or 4% (w/v) paraformaldehyde for 20 min and quenched with 0.2 M glycine. […]

N#CCCN [BAPN]
elastic fiber formation in the presence of BAPN (Dermal human fibroblasts): prevents fiber formation

Cc1ccc2c(c1)C(=O)C1(O)CCN(c3ccccc3)C1=N2 (stereo not drawn) [blebbistatin]
elastin fiber formation in the presence of blebbistatin (human skin fibroblasts; 50 μM blebbistatin added at the same time as 125 μg/ml tropoelastin, neonatal fibroblasts): substantially impaired

+RGDS
elastin network formation (human skin fibroblasts; 125 μg/ml protein added to primary human neonatal skin fibroblasts (NHF8909) 12 days post-seeding): Spherule rather than fiber deposition
